In patent US20220395497A1, “Cancer Treatment Using Camptothecin Derivatives” (priority 2019, published 2022):
Where “and” joins values, the source holds several entries; their conditions need not be identical. Equal entries are not always repeated. Entries after “also recorded” stand apart in the source; their conditions may differ.

System: adults with recurrence of glioblastoma multiforme (GBM)
Test: Phase 2 open-label study of IV AR-67 (7.5 mg/m2 once daily for 5 days, 21-day cycle) in recurrent GBM: adverse events (Safety Population, NCI-CTCAE). Cohort 1 = not received or not recently failed (>90 days) bevacizumab; Cohort 2 = recently (<90 days) failed bevacizumab
Format: in vivo, human
Conditions: for 1 related SAE, patients (%) / related SAE, No of Events / related TEAE, No of Events / ≥1 related TEAE, patients (%): possibly, probably, or definitely related
Procedure: This solution was reconstituted in dextrose 5% in water to a final concentration between 0.06-0.6 mg/mL Drug (7.5 mg/m2) was to be given until the onset of toxicity requiring discontinuation or tumor progression. Tumor response was assessed=14d after every second cycle and before every third cycle using MRI.

[1] = reGBM, single agent, infusion, N = 45

CC[C@@]1(O)C(=O)OCc2c1cc1n(c2=O)Cc2c-1nc1ccc(O)cc1c2[Si](C)(C)C(C)(C)C [AR-67, (205)-7-tert-butyldimethysilyl-10-hydroxycamptothecin]
TEAE NCI-CTCAE Grade 1, No of Events (Cohort 1, N = 30): 178 | TEAE NCI-CTCAE Grade 1, patients (%) (Cohort 1, N = 30): (70.0) % | TEAE NCI-CTCAE Grade 2, No of Events (Cohort 1, N = 30): 94 | TEAE NCI-CTCAE Grade 2, patients (%) (Cohort 1, N = 30): (60.0) % | TEAE NCI-CTCAE Grade 3, No of Events (Cohort 1, N = 30): 63 | TEAE NCI-CTCAE Grade 3, patients (%) (Cohort 1, N = 30): (63.3) % | TEAE NCI-CTCAE Grade 4, No of Events (Cohort 1, N = 30): 5 | TEAE NCI-CTCAE Grade 4, patients (%) (Cohort 1, N = 30): (16.7) % | TEAE NCI-CTCAE Grade 5, No of Events (Cohort 1, N = 30): 0 | TEAE Nausea, patients (%) (Cohort 1, N = 30): 13.3% | TEAE Nervous System Disorders, patients (%) (Cohort 1, N = 30): (50.0) % | TEAE Neutropenia, patients (%) (Cohort 1, N = 30): 16.7% | TEAE Neutrophil count decreased, patients (%) (Cohort 1, N = 30): 16.7% | TEAE Not Related to AR-67, No of Events (Cohort 1, N = 30): 83 | TEAE Not Related to AR-67, patients (%) (Cohort 1, N = 30): (66.7) % | TEAE Platelet count decreased, patients (%) (Cohort 1, N = 30): 13.3% | TEAE Possibly Related to AR-67, No of Events (Cohort 1, N = 30): 146 | TEAE Possibly Related to AR-67, patients (%) (Cohort 1, N = 30): (66.7) % | TEAE Probably Related to AR-67, No of Events (Cohort 1, N = 30): 76 | TEAE Probably Related to AR-67, patients (%) (Cohort 1, N = 30): (40.0) % | TEAE Psychiatric Disorders, patients (%) (Cohort 1, N = 30): 30.0% | TEAE Respiratory, Thoracic, and Mediastinal Disorders, patients (%) (Cohort 1, N = 30): (30.0) % | TEAE Thrombocytopenia, patients (%) (Cohort 1, N = 30): 20% | TEAE Vascular Disorders, patients (%) (Cohort 1, N = 30): (23.3) % | TEAE Vision blurred, patients (%) (Cohort 1, N = 30): (10.0) % | TEAE Vomiting, patients (%) (Cohort 1, N = 30): 10.0% | TEAE White blood cell count decreased, patients (%) (Cohort 1, N = 30): 16.7% | TEAE leading to death, No of Events (Cohort 1, N = 30): 16 | TEAE leading to early discontinuation, No of Events (Cohort 1, N = 30): 5 | TEAE, No of Events (Cohort 1, N = 30): 346 | severe WBC count decreased, patients (%) (Cohort 1, N = 30): 10.0% | severe neutropenia, patients (%) (Cohort 1, N = 30): 16.7% | severe neutrophil count decreased, patients (%) (Cohort 1, N = 30): 10.0% | ≥1 TEAE leading to death, patients (%) (Cohort 1, N = 30): (3.3) % | 1 related SAE, patients (%) (Cohort 1, N = 30): (20.0) % | related SAE, No of Events (Cohort 1, N = 30): 10 | related TEAE, No of Events (Cohort 1, N = 30): 258 | ≥1 related TEAE, patients (%) (Cohort 1, N = 30): (83.3) % | SAE blood and lymphatic system disorders, events (Cohort 2): 3 | SAE blood and lymphatic system disorders, patients (Cohort 2): 2 | SAE headache, patients (Cohort 2): 2 | SAE nervous system disorders, events (Cohort 2): 6 | SAE nervous system disorders, patients (Cohort 2): 6 | Death, No of Events (Cohort 2, N = 13): 2 | Death, patients (%) (Cohort 2, N = 13): (15.4) % | SAE, No of Events (Cohort 2, N = 13): 14 | TEAE Blood and Lymphatic System Disorders, events (Cohort 2, N = 13): 3 | TEAE Blood and Lymphatic System Disorders, patients (%) (Cohort 2, N = 13): 15.4% and 15% | TEAE Constipation, patients (%) (Cohort 2, N = 13): 15.4% and 15% | TEAE Convulsion, patients (%) (Cohort 2, N = 13): 7.7% | TEAE Definitely Related to AR-67, No of Events (Cohort 2, N = 13): 8 | TEAE Definitely Related to AR-67, patients (%) (Cohort 2, N = 13): (38.5) % | TEAE Diarrhoea, patients (%) (Cohort 2, N = 13): 15.4% and 15% | TEAE Eye Disorders, patients (%) (Cohort 2, N = 13): 7.7% | TEAE Gastrointestinal Disorders, patients (%) (Cohort 2, N = 13): 53.8% | TEAE General Disorders and Administration Site Conditions, patients (%) (Cohort 2, N = 13): 38.5% | TEAE Intensity Life Threatening, No of Events (Cohort 2, N = 13): 1 | TEAE Intensity Life Threatening, patients (%) (Cohort 2, N = 13): (7.7) % | TEAE Intensity Mild, No of Events (Cohort 2, N = 13): 20 | TEAE Intensity Mild, patients (%) (Cohort 2, N = 13): (53.8) % | TEAE Intensity Moderate, No of Events (Cohort 2, N = 13): 18 | TEAE Intensity Moderate, patients (%) (Cohort 2, N = 13): (30.8) % | TEAE Intensity Severe, No of Events (Cohort 2, N = 13): 14 | TEAE Intensity Severe, patients (%) (Cohort 2, N = 13): (61.5) % | TEAE Investigations SOC, events (Cohort 2, N = 13): 2 | TEAE Investigations, patients (%) (Cohort 2, N = 13): 7.7% | TEAE Metabolism and Nutrition Disorders, patients (%) (Cohort 2, N = 13): (15.4) % | TEAE Musculoskeletal and Connective Tissue Disorders, patients (%) (Cohort 2, N = 13): 23.1% | TEAE NCI-CTCAE Grade 1, No of Events (Cohort 2, N = 13): 17 | TEAE NCI-CTCAE Grade 1, patients (%) (Cohort 2, N = 13): (53.8) % | TEAE NCI-CTCAE Grade 2, No of Events (Cohort 2, N = 13): 16 | TEAE NCI-CTCAE Grade 2, patients (%) (Cohort 2, N = 13): (30.8) % | TEAE NCI-CTCAE Grade 3, No of Events (Cohort 2, N = 13): 16 | TEAE NCI-CTCAE Grade 3, patients (%) (Cohort 2, N = 13): (69.2) % | TEAE NCI-CTCAE Grade 4, No of Events (Cohort 2, N = 13): 3 | TEAE NCI-CTCAE Grade 4, patients (%) (Cohort 2, N = 13): (23.1) % | TEAE NCI-CTCAE Grade 5, No of Events (Cohort 2, N = 13): 0 | TEAE Nausea, patients (%) (Cohort 2, N = 13): 30.8% and 31% | TEAE Nervous System Disorders, patients (%) (Cohort 2, N = 13): 46.2% | TEAE Neutropenia, patients (%) (Cohort 2, N = 13): 7.7% | TEAE Not Related to AR-67, No of Events (Cohort 2, N = 13): 25 | TEAE Not Related to AR-67, patients (%) (Cohort 2, N = 13): (53.8) % | TEAE Possibly Related to AR-67, No of Events (Cohort 2, N = 13): 19 | TEAE Possibly Related to AR-67, patients (%) (Cohort 2, N = 13): (53.8) % | TEAE Probably Related to AR-67, No of Events (Cohort 2, N = 13): 1 | TEAE Probably Related to AR-67, patients (%) (Cohort 2, N = 13): (7.7) % | TEAE Psychiatric Disorders, patients (%) (Cohort 2, N = 13): 23.1% | TEAE Respiratory, Thoracic, and Mediastinal Disorders, patients (%) (Cohort 2, N = 13): (15.4) % | TEAE Thrombocytopenia, patients (%) (Cohort 2, N = 13): 7.7% | TEAE Vision blurred, patients (%) (Cohort 2, N = 13): 7.7% | TEAE Vomiting, patients (%) (Cohort 2, N = 13): 7.7% | TEAE leading to death, No of Events (Cohort 2, N = 13): 1 | TEAE leading to early discontinuation, No of Events (Cohort 2, N = 13): 5 | TEAE, No of Events (Cohort 2, N = 13): 55 | ≥1 TEAE leading to death, patients (%) (Cohort 2, N = 13): (7.7) % | 1 related SAE, patients (%) (Cohort 2, N = 13): (38.5) % | related SAE, No of Events (Cohort 2, N = 13): 9 | related TEAE, No of Events (Cohort 2, N = 13): 28 | ≥1 related TEAE, patients (%) (Cohort 2, N = 13): (76.9) % | patients with AEs documented as mild, moderate, and severe intensity (span over the three) (Safety Population): 58-69% | toxicities relative to comparator drug (comparison with published trials of the comparator): reduced toxicities relative to the toxicities induced by Etirinotecan treatment; also recorded: reduced toxicities relative to the toxicities induced by Karenitecin treatment; also recorded: reduced toxicities relative to the toxicities induced by Gimatecan treatment; also recorded: reduced toxicities relative to the toxicities induced by Lomustine treatment; also recorded: does not display the severe dose limiting toxicities typical of the marketed standard, Irinotecan; also recorded: dramatically reduced toxicities relative to the toxicities induced by Irinotecan treatment | tolerability (in vivo): generally well tolerated | TEAEs leading to discontinuation from the nervous system disorders SOC, events (of the 10 TEAEs leading to discontinuation): Six | Diarrhoea Grades 3-5 (reGBM, single agent, N = 45): 0% | Nausea Grades 3-5 (reGBM, single agent, N = 45): 2% | Thrombocytopenia Grades 3-4 (reGBM, single agent, N = 45): 4% | Vomiting Grades 3-5 (reGBM, single agent, N = 45): 0% | Neutropenia Grades 3-4 (reGBM, single agent, N = 45, All grade 3): 13% | Diarrhoea Grade 4 [1]: 0% | Nausea Grades 3,4 [1]: 2% | Neutropenia Grade 4 [1]: 0% | Vomiting Grades 3,4 [1]: 0%
